Experimental data reported in publication PMC4552634, “A New Set of Chemical Starting Points with Plasmodium falciparum Transmission-Blocking Potential for Antimalarial Drug Discovery” (PLoS ONE, 2015).
Read-outs that look alike come from different tables or passages of the source.

Assays:
[1] = system: P. falciparum stage V gametocytes; experiment: microbe, parasite or virus in culture; parameters: BacTiter-Glo ATP luminescence viability of purified stage V gametocytes in 384-well plates, per cent inhibition versus DMSO
[2] = system: P. falciparum asexual stages; conditions: asexual stages; TCAMS data; read-out: IC50 asexual; cited from earlier work
HepG2 cells = experiment: Cytotoxicity in HepG2 cells (intracellular ATP, ATPlite, 48 h); assay type: cell-based, human; conditions: HepG2 cells; IC50 per ratio column head; unit inferred
[3] = system: P. falciparum stage V gametocytes; experiment: Gametocytocidal ATP bioluminescence assay (single point 5 μM and 1 μM, dose-response); assay type: cell-based, Plasmodium falciparum; conditions: for Ratio IC50 HepG2/IC50 P. falciparum: IC50 HepG2 divided by IC50 P. falciparum gametocytes
Protocol: Purified stage IV-V gametocytes were obtained as previously described [10]. Single point ATP bioluminescence assay and dose–response of positive hits was determined in accordance with the previously published protocol [10].

[4] = Plasmodium falciparum, 48 h, read-out: % Inhibition
[5] = Plasmodium falciparum, 48 h; read-out: % Inhibition
[6] = P. falciparum gametocytes, average, read-out: IC50 Pf Gametocytes average, IC50 (µM) average
[7] = sexual stages (gametocytes), dose-response, read-out: IC50 sexual

SMILES | inhibition at 5 µM [1, 4] [%] | further results
CC(C)c1cc(Oc2c(I)cc(CCN=C(N)N)cc2I)ccc1O [TCMDC-142299] | 38.1 | 
COc1cccc2c(N/N=C/c3ccc([N+](=O)[O-])cc3)ccnc12 [TCMDC-142109] | 64 | 
Fc1ccc(C2N=C(SCCSC3=NC(c4ccc(F)cc4)C(c4ccc(F)cc4)N3)NC2c2ccc(F)cc2)cc1 (centres unmarked) [TCMDC-142269] | -7.65 | 
Nc1c2c(nc3ccccc13)C(=Cc1ccc(O)cc1)CCC2 [TCMDC-142288] | -4.93 | 
CN=C(NO)NCCN(C)C [TCMDC-142305] | -1.82 | 
FC(F)(F)c1ccc2nccc(NN=Cc3ccc(Cl)cc3)c2c1 [TCMDC-142103] | 1.69 | 
CCN(CC)CC(O)c1cc(-c2ccc(OC)cc2)nc2cc(Cl)ccc12 (centres unmarked) [TCMDC-142222] | -13 | 
FC(F)(F)c1ccc2c(NN=Cc3cccc(Cl)c3)ccnc2c1 [TCMDC-142149] | -44.9 | 
Fc1cccc(C=NNc2ccnc3ccc(C(F)(F)F)cc23)c1 [TCMDC-142151] | -62.1 | 
COc1ccc(C=NNc2ccnc3cc(F)c(C)cc23)c2ccccc12 [TCMDC-142235] | -8.9 | 
CCCC(C(=O)OCCNC)(c1ccccc1)c1ccccc1 [TCMDC-142275] | 48.4 | 
Cc1cc(F)ccc1Nc1nc(N(C)c2ccccc2)c2cc(OCCCN(C)C)ccc2n1 [TCMDC-142332] | 57.7 | 
COc1ccc(C=Cc2cc(N)c3ccccc3n2)cc1 [TCMDC-142280] | 97.9 | 
CCCCCCc1cc(OC)c(OC)cc1C(C)Nc1ccnc2cc(Cl)ccc12 (centres unmarked) [TCMDC-142247] | -55.2 | 
COc1cccc(C=NNc2cc(C)nc3ccccc23)c1 [TCMDC-142183] | -15.9 | 
CCCCCC(C)C(C)c1cc(O)c2c(c1)OC(C)(C)c1cnccc1-2 (centres unmarked) [TCMDC-142188] |  | inhibition at 5 µM [1, 5]: -17.5%
Cc1cc(N/N=C/c2ccc([N+](=O)[O-])cc2)c2ccc(F)cc2n1 [TCMDC-142170] | 105 | 
Cc1cc(NN=Cc2cccc(Cl)c2)c2ccc(F)cc2n1 [TCMDC-142161] | -34 | 
Fc1ccccc1C=NNc1ccnc2ccccc12 [TCMDC-142101] | -64.6 | 
COc1ccc2nccc(NN=Cc3cccc(F)c3)c2c1 [TCMDC-142131] | 82.2 | 
COc1cccc2c(NN=Cc3cccc(F)c3)ccnc12 [TCMDC-142107] | 74.3 | 
CCCCc1ccc2[nH]cc(C(=O)OCC)c(=O)c2c1 [TCMDC-142243] | 33.5 | 
CCCCCCCCNc1c2ccc(Cl)cc2nc2ccc(OC)cc12 [TCMDC-142191] | 0.773 | 

SMILES | inhibition at 5 µM [1, 4] [%] | further results
N=C(N)c1cccc(OCCCOc2cccc(NC(=O)Nc3ccc([N+](=O)[O-])cc3)c2)c1 [TCMDC-142189] | 24.9 | 
Fc1ccc2nccc(NN=Cc3ccccc3Cl)c2c1 [TCMDC-142122] | -2.19 | 
COc1ccc(C=NNc2c3ccccc3nc3ccccc23)c2ccccc12 [TCMDC-142231] | -139 | 
COc1ccc2c(NN=Cc3ccccc3)cc(C)nc2c1 [TCMDC-142119] | 7.88 | 
N#Cc1ccc(S(=O)(=O)N2C(c3cccc([N+](=O)[O-])c3)C(C(=O)c3ccccc3)N(C3CCCCC3)C2c2cccc([N+](=O)[O-])c2)cc1 (centres unmarked) [TCMDC-142230] | 43.9 | 
Cc1cc(N/N=C/c2ccccc2[N+](=O)[O-])c2cc(F)ccc2n1 [TCMDC-142167] | -36.5 | 
Cc1cc(F)ccc1Nc1nc(N(C)c2ccccc2)c2cc(OCCN(C)C)ccc2n1 [TCMDC-142333] | 31.3 | 
CC(C)(C)c1cc(Cl)cc(C(=O)Nc2cc([N+](=O)[O-])ccc2Cl)c1O [TCMDC-142214] | 36.2 | 
CCOC(=O)CCCN1C(=O)CN=C(c2ccccc2)c2cc(Cl)ccc21 [TCMDC-142274] |  | inhibition at 5 µM [1, 5]: -8.73%
COc1ccc2c(NN=Cc3cccc(Cl)c3)ccnc2c1 [TCMDC-142128] | 98.7 | 
COc1ccc2c(N/N=C/c3ccccc3[N+](=O)[O-])ccnc2c1 [TCMDC-142140] | 101 | 
Fc1ccc(C=NNc2ccnc3ccc(C(F)(F)F)cc23)cc1 [TCMDC-142152] | -15.6 | 
Nc1c2c(nc3ccc(C(=O)Nc4ccc(Br)cc4)cc13)CCCC2 [TCMDC-142287] | 62.2 | 
CC(C)(C)NCC(O)COc1ccc(Cl)cc1C1=NNC(=O)CC1 (centres unmarked) [TCMDC-142298] | 8.53 | 
COc1cccc2c(NN=Cc3ccccc3F)ccnc12 [TCMDC-142181] | -26 | 
COc1ccc2ccccc2c1C=NNc1cc(C)nc2cc(C(F)(F)F)ccc12 [TCMDC-142238] | -35 | 
CC(C)c1cc(Oc2c(I)cc(CCNCc3ccccc3)cc2I)ccc1O [TCMDC-142300] | -73.5 | 
Cc1cc(F)ccc1Nc1nc(N(C)c2ccccc2)c2cccc(O)c2n1 [TCMDC-142331] | -52.7 | 
COc1ccc2nccc(NN=Cc3ccccc3)c2c1 [TCMDC-142110] | 31.2 | 
Nc1c2c(nc3ccc(C(=O)Nc4ccccc4)cc13)CCCC2 [TCMDC-142284] | 39.7 | 
Cc1cc(NN=Cc2ccccc2Cl)c2ccc(F)cc2n1 [TCMDC-142162] | -52.4 | 
CCOc1ccc2c(NN=Cc3c4ccccc4cc4ccccc34)cc(C)nc2c1 [TCMDC-142209] | 106 | 
CCCCCCC(C)c1cc(O)c2c(c1)OC(C)(C)c1ccncc1-2 (centres unmarked) [TCMDC-142254] |  | inhibition at 5 µM [1, 5]: 56.1%

SMILES | inhibition at 5 µM [1, 4] [%] | further results
CCCCCCCCNCC(O)c1ccc(Cl)c(Cl)c1 (centres unmarked) [TCMDC-142225] | 17.7 | 
Cc1ccccc1C1=CCN(CCCN2c3ccccc3Sc3ccc(Cl)cc32)CC1 [TCMDC-142249] | 53.4 | 
COc1ccc2nccc(NN=Cc3ccccc3Cl)c2c1 [TCMDC-142126] | 20.5 | 
Cc1cc(N/N=C/c2cccc([N+](=O)[O-])c2)c2cc(F)ccc2n1 [TCMDC-142166] | -21.6 | 
Oc1ccc(Br)cc1-c1nc2ccc(Cl)cc2nc1-c1cc(Br)ccc1O [TCMDC-142219] | 82.4 | 
CCOc1ccc2c(NN=Cc3cccc(Cl)c3)cc(C)nc2c1 [TCMDC-142192] | -2.16 | 
O=[N+]([O-])c1ccccc1C=NNc1c2c(nc3ccccc13)CCCC2 [TCMDC-142202] | -53.6 | 
O=C(NC1c2ccccc2Oc2ccccc21)c1ccccc1O [TCMDC-142251] | 3.63 | 
Cc1ccccc1Nc1nc(NCCc2ccccc2)nc2ccccc12 [TCMDC-142322] | 101 | 
COc1ccc(C=NNc2cc(C)nc3ccc(C)cc23)c2ccccc12 [TCMDC-142217] | 103 | 
COc1ccc2c(N/N=C/c3ccc([N+](=O)[O-])cc3)ccnc2c1 [TCMDC-142108] | 91.3 | 
N=C(N)c1ccc(/C=C/c2ccc(C(=N)N)cc2O)cc1 [TCMDC-142178] | 1.54 | 
COc1ccc(OC)c2c1CC1NCC2c2c(OC)ccc(OC)c21 (centres unmarked) [TCMDC-142224] | 2.64 | 
Cc1cc(Br)cnc1CCCCN=C1NC(=O)CN1C [TCMDC-142309] | 5.26 | 
CC(C)NCC(O)COc1ccc(Cc2ccc(OCC(O)CNC(C)C)cc2)cc1 (centres unmarked) [TCMDC-142221] | 77 | 
CCCCCCCc1cc(O)c2c(c1)OC(C)(C)c1ccncc1-2 [TCMDC-142259] |  | inhibition at 5 µM [1, 5]: 6.2%
COc1ccc2nc3cc(Cl)ccc3c(Nc3ccc(O)c(CNC(C)C)c3)c2c1 [TCMDC-142278] | 57.9 | 
CCCCCCC(CC)c1cc(O)c2c(c1)OC(C)(C)c1ccncc1-2 (centres unmarked) [TCMDC-142258] |  | inhibition at 5 µM [1, 5]: -39.1%
CC(C)COc1ccc2ccccc2c1CNCCCCCCNCc1c(OCC(C)C)ccc2ccccc12 [TCMDC-137972] |  | IC50 [2]: 695 nM; IC50 (HepG2 cells): 1880 nM; Ratio IC50 HepG2/IC50 P. falciparum [3]: 18; IC50 [3, 6]: 0.1 µM; IC50 [3, 7]: 0.103 µM
CN(C)CCNCc1ccc(-c2ccc3c(Nc4ccc(Oc5ccccc5)cc4)ccnc3c2)o1 [TCMDC-138399] |  | IC50 [2]: 280 nM; IC50 (HepG2 cells): 7570 nM; Ratio IC50 HepG2/IC50 P. falciparum [3]: 23; IC50 [3, 6]: 0.33 µM; IC50 [3, 7]: 0.325 µM
CC(=O)c1ccc2nc[nH]c(=O)c2c1 [TCMDC-138172] |  | IC50 [2]: 722 nM; IC50 (HepG2 cells): < 1560 nM; Ratio IC50 HepG2/IC50 P. falciparum [3]: <3.9; IC50 [3, 6]: 0.4 µM
Cc1nc(-c2cccc(Nc3ccnc4cc(-c5nccs5)ccc34)c2)no1 [TCMDC-138334] |  | IC50 [2]: 322 nM; IC50 (HepG2 cells): 7620 nM; Ratio IC50 HepG2/IC50 P. falciparum [3]: 25; IC50 [3, 6]: 0.3 µM
CN1CCCc2cc(NC(=O)C=Cc3ccc(-c4ccc(F)cc4F)o3)ccc2C1 [TCMDC-134051] |  | IC50 [2]: 783 nM; IC50 (HepG2 cells): 13400 nM; Ratio IC50 HepG2/IC50 P. falciparum [3]: <1; IC50 [3, 6]: > 10 µM
